Results on five compounds are retold here after patent US11066399B2, “Ferroportin inhibitors” (Vifor (International) AG, priority 2015, dated 2021).

Assay [1] has as its target T1, ferroportin (Fpn) (Mus musculus, UniProt Q9JHI9).
T1 construct: host or cells: J774 mouse macrophage cell line, Fe(III)-NTA induced
T1 sequence (Q9JHI9 1-570): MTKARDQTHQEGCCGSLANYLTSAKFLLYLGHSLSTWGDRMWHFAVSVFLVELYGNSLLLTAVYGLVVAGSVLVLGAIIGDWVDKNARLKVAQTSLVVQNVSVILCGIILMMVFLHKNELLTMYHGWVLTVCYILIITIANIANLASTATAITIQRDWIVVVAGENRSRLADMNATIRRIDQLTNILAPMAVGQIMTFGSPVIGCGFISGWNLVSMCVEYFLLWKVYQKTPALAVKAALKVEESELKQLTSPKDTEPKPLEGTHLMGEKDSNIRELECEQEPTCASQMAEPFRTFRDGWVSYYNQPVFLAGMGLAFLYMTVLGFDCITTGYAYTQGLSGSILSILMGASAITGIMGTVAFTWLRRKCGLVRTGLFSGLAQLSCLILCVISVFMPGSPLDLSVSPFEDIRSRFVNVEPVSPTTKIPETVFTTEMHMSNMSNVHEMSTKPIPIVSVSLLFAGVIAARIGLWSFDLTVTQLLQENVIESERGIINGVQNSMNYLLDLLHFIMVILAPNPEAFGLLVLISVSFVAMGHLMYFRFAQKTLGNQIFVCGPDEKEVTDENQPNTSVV
Kind of assay: Hepcidin Internalization Assay (J774). It counts as cell-based. To be noted: average (AVE) of multiple measurements; TMR-hepcidin 25 nM, J774 cells. From the text: This cellular assay allows quantification of the binding of hepcidin to ferroportin (Fpn) through microscopic detection of internalization of a fluorescently labeled hepcidin into J774 cells. […] Binding of hepcidin to Fpn triggers internalization and degradation of both hepcidin and Fpn. However, the TMR (6-carboxytetramethylrhodamine) fluorophore attached to hepcidin remains associated with the cell after degradation of the hepcidin peptide backbone. Therefore, microscopic detection of cell-associated TMR fluorescence is a measure of hepcidin binding to Fpn and internalization of hepcidin and Fpn. If TMR-hepcidin is prevented from binding to Fpn, cellular TMR fluorescence remains low (Dürrenberger et al, 2013). The effect of small molecular weight Fpn inhibitor compounds in this assay was evaluated in vitro as described below.
After overnight incubation, cells were washed 3 times with pre-warmed DMEM w/o phenol red, 30 μl/well of DMEM w/o phenol red was added after the final wash and 10 μl/well of dilution series of test compounds were added in triplicates. […] Cells were incubated in a total volume of 50 μl at 37° C. with 5% CO2 for 2 hours, then Hoechst 33342 dye was added to a final concentration of 0.5 μg/ml to stain nuclei and further incubated for 10 min. at 37° C. with 5% CO2. Cells were washed 3 times with PBS and fixed in 100 μl of 4% paraformaldehyde in PBS for 15 min. at room temperature. After removal of the paraformaldehyde solution, cells were washed 3 times with PBS leaving 100 μl per well and the plates were sealed with foil plate seal. TMR (530-550 nm excitation/575-625 nm emission/400 ms exposure time) and Hoechst 33342 (360-370 nm excitation/420-460 nm emission/10 ms exposure time) fluorescence images were acquired using a ScanR plate imager (Olympus) with a 20× high NA objective. Four pictures were acquired per well and fluorescence channel covering ca. 1500 cells per well. The acquired image data was analysed with the ScanR image analysis software. Image analysis included detection of nuclei (Hoechst 33342 fluorescence), identification of cell-associated regions, application of a virtual channel and thresholding for rolling-ball-type background reduction, followed by application of the Sum(Mean) algorithm to measure the TMR fluorescence associated with cells as a quantitative measure for internalized TMR-hepcidin. IC50 values were calculated with the Sum(Mean) raw data using “log(inhibitor) vs. response” curve fitting of Prism 5 software (GraphPad Software Inc., version 5.02).

A further assay deals with anemic Wistar rats. Kind of assay: Prevention of iron absorption in anemic rats. It counts as in vivo, rat. The following applies: 1 h before 0.5 mg/kg ferrous sulfate. The method, then: To assess the in vivo efficacy of ferroportin (Fpn) inhibitors to block iron absorption, a series of Fpn inhibitors were tested in an anemic rat model for iron absorption. Wistar rats (3-4 weeks old, n=5, Janvier Labs) were fed a low iron diet (Provimi-Kliba, Cat. 2039) until their hemoglobin (Hb) values reach 7-8 g/dl one day before dosing of the Fpn inhibitor compounds. One hour before oral application of 0.5 mg/kg of ferrous sulfate, test compounds formulated in methyl cellulose or Cremophor were dosed orally. Blood samples were taken by tail vein puncture one hour before administration of iron (−1 h), immediately after dosing of the Fpn inhibitors (0 h) and one hour (1 h), three hours (3 h) and occasionally up to 6 hours (6 h) after dosing of the test compounds. Serum iron levels were measured (Abbott Diagnostics, Cat. 6K95) and inhibition of the rise of serum iron three hours after dosing of the test compound was calculated as a measure for efficacy of the Fpn inhibitors in blocking iron absorption (Table 7).

In assay [2] the target is T1, ferroportin (Fpn). Kind of assay: Ferroportin Ubiquitination and Degradation (immunoprecipitation, Western blot, J774 cells). It counts as cell-based. Details: key: +: comparable to hepcidin; −: no effect; +/−: intermediate effect. To be noted: ca. 10-fold IC50 concentration, visual inspection of Western blots. Here is the method: Exposure of cells expressing ferroportin (Fpn) to hepcidin is known to trigger ubiquitination and subsequent internalization and degradation of Fpn (Qiao, 2012). The potential of Fpn inhibitors to induce Fpn ubiquitination and degradation was investigated with an immunoprecipitation assay using the J774 mouse macrophage cell line which expresses Fpn upon treatment with iron.
Cells were incubated with synthetic human hepcidin (Bachem, Cat. H-5926) or Fpn inhibitor compounds for 10 min or 120 min. Cells were washed and lysed with ice-cold lysis buffer (Pierce, Life Technologies, Cat. 87787) including 1×HALT protease inhibitor cocktail (Life technologies, Cat. 78429) and 10 mM iodoacetamide (Sigma, Cat. 16125) to stabilize ubiquitinated proteins. Immunoprecipitation was done using the Pierce Classic IP Kit (Life Technologies, Cat. 26146) following the manufacturer's protocol. Briefly, 2 mg protein in 1.25 ml IP lysis buffer was incubated by mixing for 1 h at 4° C. with control agarose beads to pre-clear the lysate and reduce nonspecific signal. Unbound lysate was then incubated overnight with 12 μg per reaction of the affinity purified anti-Fpn antibody F308 that was raised against a GST fusion protein of mouse Fpn amino acids 224-308. Immune complexes were captured by pipetting 14 μl settled Pierce Protein A/G Plus Agarose beads (Life Technologies, Cat. 20423) per reaction and the slurry was incubated for 1.5 h at 4° C. with gentle end-over-end mixing. The beads were washed and immune complexes were eluted directly with 75 μl SDS NuPAGE LDS sample buffer (Life Technologies, Cat. NP0007) containing DTT (Life Technologies, Cat. NP0009). After immunoprecipitation samples were analyzed by Western blotting using a rabbit anti-mouse MTP1 antiserum (Alpha Diagnostic International, Cat. MTP11-A) and a mouse anti-mono- and polyubiquitinylated conjugates monoclonal antibody (Enzo Lifesciences, Cat. BML-PW8810) for detection of ferroportin and ubiquitin, respectively. Mouse monoclonal anti-rabbit IgG light chain (Abcam, Cat. ab99697) and anti-mouse IgG H&L (Abcam, Cat. ab6789) HRP conjugates were used as secondary antibodies.
A selection of eleven Fpn inhibitors were tested in this assay and compared to hepcidin.
Table 5 Summary of Fpn inhibitors tested in the Fpn ubiquitination and degradation assay.

A further assay has as its target T2, human Fpn (Homo sapiens, UniProt Q9NP59).
T2 construct: FLAG (C); made in house; host or cells: Pichia pastoris
T2 sequence (Q9NP59 1-571): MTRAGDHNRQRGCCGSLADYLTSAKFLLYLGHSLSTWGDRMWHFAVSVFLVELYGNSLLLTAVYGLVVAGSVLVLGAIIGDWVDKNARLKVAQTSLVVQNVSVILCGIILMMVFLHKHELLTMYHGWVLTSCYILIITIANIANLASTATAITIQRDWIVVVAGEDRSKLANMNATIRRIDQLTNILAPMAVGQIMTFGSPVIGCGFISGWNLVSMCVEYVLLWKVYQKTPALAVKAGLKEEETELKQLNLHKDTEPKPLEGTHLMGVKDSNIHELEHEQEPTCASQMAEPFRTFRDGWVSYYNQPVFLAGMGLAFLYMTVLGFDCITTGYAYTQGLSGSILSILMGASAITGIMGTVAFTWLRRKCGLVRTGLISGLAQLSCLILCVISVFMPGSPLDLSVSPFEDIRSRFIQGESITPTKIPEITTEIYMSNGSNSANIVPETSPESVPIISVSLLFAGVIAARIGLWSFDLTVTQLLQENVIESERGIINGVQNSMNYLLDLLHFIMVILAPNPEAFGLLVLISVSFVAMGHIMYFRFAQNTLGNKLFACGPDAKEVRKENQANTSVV
Kind of assay: Biophysical Ferroportin-Hepcidin Binding Assay (fluorescence polarization). The following applies: average (AVE) of multiple measurements; TMR-hepcidin binding to purified human Fpn; read-out: FP IC50. The method, then:
This biophysical assay was developed to confirm inhibition of hepcidin binding to ferroportin (Fpn) more directly. Incubation of TMR-hepcidin with purified human Fpn isolated from Pichia pastoris yeast cells expressing human Fpn with a C-terminal FLAG affinity tag (Bonaccorsi di Patti, 2014) leads to increased fluorescence polarization (FP) of the TMR-hepcidin ligand. Small molecular weight Fpn inhibitors were tested for inhibition of binding of TMR-hepcidin to Fpn, as detected by dose-dependent decrease of the TMR FP signal, as described in detail below.
A mixture of […] human Fpn and 30 nM TMR-hepcidin in FP assay buffer containing 50 mM Tris-HCl pH 7.3, 200 mM NaCl, 0.02% DDM, 0.1% BSA was plated into a 384 well black low volume round bottom plate (Corning, Cat. 3677) at 16 μl per well. 8 μl of serial dilutions of test compounds were added in duplicates to reach final Fpn and TMR-hepcidin concentrations of […] and 20 nM, respectively. Plates were incubated for 90 minutes at room temperature and parallel (S) and perpendicular (P) fluorescence was measured in a Synergy H1 fluorescence reader (BioTek). FP values were calculated in mP according to the following formula.

The subject of the next assay is naïve WT C57BL/6 mice. The experiment in a line: Hypoferremia in naïve mice. Format: in vivo, mouse. To be noted: injection of synthetic hepcidin in WT naïve mice, from the vehicle control, maximal effect at 3-4 hours. Here is the method:
Female C57BL/6 mice (Janvier, France) at age of 9 weeks were fed a standard diet (Harlan Provimi Kliba 3436) and treated per os (p.o.) with compounds or the corresponding amount of vehicle at a volume of 10 ml/kg body weight. Fpn inhibitors were formulated in 0.5% methylcellulose/water or 20% cremophor EL/water and dosed p.o. in mice at 10, 30 or 100 mg/kg body weight. Three hours later, mice were pre-terminally anesthetized in isoflurane chambers and blood was collected by retro-orbital bleeding. Mice were sacrificed by cervical dislocation and spleens, livers and duodena were harvested and used for biomarker analysis. All experiments have been conducted in compliance with the license approved by the responsible veterinarian authorities. Serum was isolated by centrifugation of blood into gel-containing microtainers and serum iron was determined by the MULTIGENT Iron assay (Abbott Diagnostics, 6K95). Eight mice per group were used and one-way ANOVA with Bonferroni's multiple comparison test was performed to analyze the statistical differences between the experimental groups.
Relative serum iron reduction at 3 h after dosing was calculated by subtracting the average of serum iron values of animals dosed with the Fpn inhibitor from that of vehicle-treated animals. The difference in average serum iron values between vehicle and compound treated groups was then divided by the average of serum iron of the vehicle control group and listed as percentage.

Marks after values point to notes of the source that are not given here.

In turn, `Cc1cccnc1CNC(=O)c1csc(CCNCc2nc3ccccc3[nH]2)n1` [Example 55] showed an IC50 against ferroportin (Fpn) [1] of 0.015 µM. In addition, the “Serum Iron Inhibition (%) at 3 h” value in the assay on anemic Wistar rats (Dose 3 mg/kg oral) is reported as 54*** %; in the assay with anemic Wistar rats (Dose 10 mg/kg oral), 72*** %.
With `O=C(NCc1ncccc1F)c1coc(CCNCc2nc3ccccc3[nH]2)n1` [Example 126], on ferroportin (Fpn) [2], the “Fpn Degradation (120 min.)” value was “+” and the “Fpn Ubiquitination (10 min.)” value is “+/−”.
As to `O=C(NCc1ccccn1)c1csc2c1CCN(CCc1nc3ccccc3[nH]1)C2` [Example 49], the IC50 was 24 µM at human Fpn and 30.6 µM against ferroportin (Fpn) [1].
Regarding `CC[C@H](C)[C@@H]1NC(=O)[C@@H](NC(=O)[C@@H](NC(=O)[C@@H]2CCCN2C(=O)[C@H](Cc2ccccc2)NC(=O)[C@H](Cc2c[nH]cn2)NC(=O)[C@@H](NC(=O)[C@@H](N)CC(=O)O)[C@@H](C)O)[C@@H](C)CC)CSSC[C@@H](C(=O)N[C@@H](CCCCN)C(=O)N[C@H](C(=O)O)[C@@H](C)O)NC(=O)[C@@H]2CSSC[C@@H]3NC(=O)[C@@H]4CSSC[C@H](NC(=O)[C@H](Cc5ccccc5)NC1=O)C(=O)N[C@@H](CSSC[C@H](NC(=O)[C@H](CCCCN)NC(=O)[C@H](CO)NC(=O)[C@H](CCCNC(=N)N)NC(=O)[C@H](Cc1c[nH]cn1)NC3=O)C(=O)NCC(=O)N[C@@H](CCSC)C(=O)N2)C(=O)NCC(=O)N4` [hepcidin, reference compound], on ferroportin (Fpn) [2], the “Fpn Degradation (120 min.)” value is listed as “+” and the “Fpn Ubiquitination (10 min.)” value is “+”. The “reduction of serum iron levels” value in the assay on naïve WT C57BL/6 mice is on record as 40-50%.
`O=C(NCc1ccccc1F)c1coc(C2CN(CCCc3nc4ccccc4[nH]3)C2)n1` [Example 233]: the IC50 at human Fpn came to 6.78 µM; at ferroportin (Fpn) [1] it was 16 µM.
